Measurements published in US12581252B2, “Substituted pyrrolo[3,4-b]pyridines as PI3K-α inhibitors” (Relay Therapeutics, Inc., priority 2020, dated 2026).

molecular target: H1047R PIK3CA enzyme (Homo sapiens, UniProt P42336, H1047R); assay: ADP-Glo Biochemical PIK3CA Kinase Assay
Sequence (P42336 whole entry H1047R): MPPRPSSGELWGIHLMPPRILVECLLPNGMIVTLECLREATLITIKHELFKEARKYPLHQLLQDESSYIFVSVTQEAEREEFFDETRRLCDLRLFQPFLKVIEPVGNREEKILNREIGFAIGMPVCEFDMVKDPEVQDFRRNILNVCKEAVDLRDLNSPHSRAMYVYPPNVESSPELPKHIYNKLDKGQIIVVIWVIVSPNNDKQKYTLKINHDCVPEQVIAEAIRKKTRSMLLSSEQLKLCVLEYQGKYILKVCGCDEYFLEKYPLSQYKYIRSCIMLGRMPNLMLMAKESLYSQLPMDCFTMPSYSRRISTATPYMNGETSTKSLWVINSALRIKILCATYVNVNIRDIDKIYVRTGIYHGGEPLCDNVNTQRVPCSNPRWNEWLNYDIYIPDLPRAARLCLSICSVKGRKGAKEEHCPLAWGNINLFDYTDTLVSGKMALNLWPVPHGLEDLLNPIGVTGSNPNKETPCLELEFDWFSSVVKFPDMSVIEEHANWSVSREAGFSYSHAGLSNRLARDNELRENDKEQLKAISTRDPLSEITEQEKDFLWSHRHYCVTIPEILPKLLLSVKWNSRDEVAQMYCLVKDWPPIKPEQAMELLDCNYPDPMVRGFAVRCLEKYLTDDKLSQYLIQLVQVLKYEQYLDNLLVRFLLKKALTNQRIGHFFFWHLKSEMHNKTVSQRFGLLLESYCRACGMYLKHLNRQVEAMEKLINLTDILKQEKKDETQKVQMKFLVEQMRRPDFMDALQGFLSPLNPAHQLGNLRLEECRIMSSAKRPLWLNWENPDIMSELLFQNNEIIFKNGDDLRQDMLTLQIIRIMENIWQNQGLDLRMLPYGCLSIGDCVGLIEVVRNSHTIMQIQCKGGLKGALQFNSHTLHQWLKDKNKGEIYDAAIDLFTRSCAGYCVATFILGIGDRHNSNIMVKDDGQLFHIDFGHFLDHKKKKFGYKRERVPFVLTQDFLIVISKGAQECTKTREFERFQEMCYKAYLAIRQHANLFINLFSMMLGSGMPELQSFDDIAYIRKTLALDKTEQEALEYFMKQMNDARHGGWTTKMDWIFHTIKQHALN
Sequence (P27986 whole entry partner): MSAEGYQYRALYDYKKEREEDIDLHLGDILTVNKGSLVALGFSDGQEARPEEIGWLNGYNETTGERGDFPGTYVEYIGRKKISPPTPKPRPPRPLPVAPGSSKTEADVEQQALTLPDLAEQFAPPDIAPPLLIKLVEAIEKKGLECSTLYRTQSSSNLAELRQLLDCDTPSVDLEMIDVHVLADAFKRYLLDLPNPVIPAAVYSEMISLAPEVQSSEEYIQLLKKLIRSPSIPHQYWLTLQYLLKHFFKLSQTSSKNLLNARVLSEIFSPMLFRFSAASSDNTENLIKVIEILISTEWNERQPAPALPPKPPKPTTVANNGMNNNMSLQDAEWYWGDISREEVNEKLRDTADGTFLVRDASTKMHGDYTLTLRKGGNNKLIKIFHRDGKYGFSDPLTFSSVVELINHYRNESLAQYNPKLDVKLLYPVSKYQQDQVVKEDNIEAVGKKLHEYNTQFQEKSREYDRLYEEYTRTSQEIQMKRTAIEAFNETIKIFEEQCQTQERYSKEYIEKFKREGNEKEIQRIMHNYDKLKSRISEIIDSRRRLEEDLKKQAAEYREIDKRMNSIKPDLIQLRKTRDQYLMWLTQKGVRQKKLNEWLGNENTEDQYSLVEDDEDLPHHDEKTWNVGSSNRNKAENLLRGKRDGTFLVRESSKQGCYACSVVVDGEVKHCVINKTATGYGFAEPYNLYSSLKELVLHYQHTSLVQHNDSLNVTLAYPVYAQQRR

First: N#CCc1cc(NC(=O)c2cc(F)cc(C(F)(F)F)c2)c2c(c1)C(=O)N[C@@H]2c1cc(F)ccc1Cl [Compound I-1087]
Second: N#CCCc1cc(NC(=O)c2cc(F)cc(C(F)(F)F)c2)c2c(c1)C(=O)N[C@@H]2c1cc(F)ccc1Cl (stereo in doubt) [Compound I-2170]
The IC50 of the first is lower: 100 to 500 nM for the first, 10000 to 100000 nM for the second.

Compared with O=C1NC(c2cc(F)ccc2Cl)c2c(NC(=O)C3CC4(CCC4)C3)cc(Br)cc21 (stereo not drawn) [Compound I-1362], O=C1NC(c2cc(F)ccc2Cl)c2c(NC(=O)N3CCCOCC3)cc(Br)cc21 (stereo not drawn) [Compound I-574] is higher in IC50: 1000 to 10000 nM for the first, 10000 to 100000 nM for the second.

Cn1ncc(-c2cc(NC(=O)c3cc(F)cc(C(F)(F)F)c3)c3c(c2)C(=O)NC3c2cc(F)ccc2Cl)c1C#N (stereo not drawn) [Compound I-1699] and Cn1nccc1-c1cc(NC(=O)c2cc(F)cc(C(F)(F)F)c2)c2c(c1)C(=O)N[C@H]2c1cc(F)ccc1Cl [Compound I-1136] cannot be ordered by IC50: at most 100 nM for the first, at most 100 nM for the second.

First: COCc1cc(NC(=O)N2C[C@](O)(C(F)(F)F)c3cc(F)ccc32)c2c(c1)C(=O)N[C@@H]2c1cc(F)ccc1Cl (single isomer, unassigned) [Compound I-2542]
Second: CC(=O)Nc1cc(NC(=O)N2C[C@](O)(C(F)(F)F)c3cc(F)ccc32)c2c(c1)C(=O)N[C@H]2c1cc(F)ccc1Cl (single isomer, unassigned) [Compound I-2574]
The IC50 of the first is higher: 1000 to 10000 nM for the first, 100 to 500 nM for the second. The second is the more potent here.

O=C1NC(c2ccccc2Cl)c2c(NC(=O)c3nsc4ccccc34)cc(Cl)nc21 (stereo not drawn) [Compound I-93, N-[2-Chloro-5-(2-chlorophenyl)-7-oxo-5H,6H,7H-pyrrolo[3,4-b]pyridin-4-yl]-1,2-benzothiazole-3-carboxamide] and O=C1NC(c2ccccc2Cl)c2c(NC(=O)c3csc4ccccc34)ccnc21 (stereo not drawn) [Compound I-9] cannot be ordered by IC50: at most 100 nM for the first, 100 to 500 nM for the second.

Cn1cc(NS(=O)(=O)Cc2cc(NC(=O)c3cc(F)cc(C(F)(F)F)c3)c3c(c2)C(=O)NC3c2cc(F)ccc2Cl)cn1 (stereo not drawn) [Compound I-1535] and CS(=O)(Cc1cc(NC(=O)c2cc(F)cc(C(F)(F)F)c2)c2c(c1)C(=O)NC2c1cc(F)ccc1Cl)=Nc1cccnc1 (stereo not drawn) [Compound I-1486] cannot be ordered by IC50: at most 100 nM for the first, at most 100 nM for the second.

O=C(Nc1cc(CCO)cc2c1C(c1cc(F)ccc1Cl)NC2=O)c1cc(F)cc(C(F)(F)F)c1 (stereo not drawn) [Compound I-579] and O=C(O)c1cc(NC(=O)c2cc(F)cc(C(F)(F)F)c2)c2c(c1)C(=O)NC2c1cc(F)ccc1Cl (stereo not drawn) [Compound I-494] cannot be ordered by IC50: at most 100 nM for the first, at most 100 nM for the second.

First: Cc1cc2ncnn2cc1-c1cc(NC(=O)c2cc(F)cc(C(F)(F)F)c2)c2c(c1)C(=O)NC2c1cc(F)ccc1Cl (stereo not drawn) [Compound I-1827]
Second: N#Cc1cc2ncnn2cc1-c1cc(NC(=O)c2cc(F)cc(C(F)(F)F)c2)c2c(c1)C(=O)N[C@@H]2c1cc(F)ccc1Cl [Compound I-1645]
The IC50 of the first is lower: at most 100 nM for the first, 1000 to 10000 nM for the second.

First: O=C(Nc1ccnc2c1C(c1ccccc1Cl)NC2=O)c1cc(F)cc(OC(F)(F)F)c1 (stereo not drawn) [Compound I-234]
Second: O=C(Nc1cccc2c1C(c1cc(F)ccc1Cl)NC2=O)c1cc(F)cc(C(F)(F)F)c1 (stereo not drawn) [Compound I-372]
The IC50 of the first is higher: 1000 to 10000 nM for the first, at most 100 nM for the second. The second is the more potent here.

O=C(Nc1cc(-c2cccnc2C(F)(F)F)cc2c1C(c1cc(F)ccc1Cl)NC2=O)c1cc(F)cc(C(F)(F)F)c1 (stereo not drawn) [Compound I-892] and Cc1cnccc1-c1cc(NC(=O)c2cc(F)cc(C(F)(F)F)c2)c2c(c1)C(=O)NC2c1cc(F)ccc1Cl (stereo not drawn) [Compound I-890] cannot be ordered by IC50: at most 100 nM for the first, at most 100 nM for the second.

First: O=C(Nc1cc(-c2ccc(C(F)F)nc2)cc2c1[C@H](c1cc(F)ccc1Cl)NC2=O)c1cc(F)cc(C(F)(F)F)c1 [Compound I-2008]
Second: O=C(Nc1cc(-c2cnc3ncc(Cl)n3c2)cc2c1[C@@H](c1cc(F)ccc1Cl)NC2=O)c1cc(F)cc(C(F)(F)F)c1 [Compound I-1984]
The IC50 of the first is lower: at most 100 nM for the first, 500 to 1000 nM for the second.

First: Nc1cc(NC(=O)N2C[C@H](O)c3cc(F)ccc32)c2c(c1)C(=O)N[C@H]2c1cc(F)ccc1Cl (single isomer, unassigned) [Compound I-2413]
Second: O=C1N[C@H](c2cc(F)ccc2Cl)c2c(NC(=O)N3C[C@H](O)c4cc(F)ccc43)cc(-n3ccccc3=O)cc21 (single isomer, unassigned) [Compound I-2353]
The IC50 of the first is higher: 10000 to 100000 nM for the first, 1000 to 10000 nM for the second.

Cc1c(-c2cc(NC(=O)c3cc(F)cc(C(F)(F)F)c3)c3c(c2)C(=O)NC3c2cc(F)ccc2Cl)ccc2ncnn12 (stereo not drawn) [Compound I-1825] and N#Cc1cc2nccn2cc1-c1cc(NC(=O)c2cc(F)cc(C(F)(F)F)c2)c2c(c1)C(=O)N[C@H]2c1cc(F)ccc1Cl [Compound I-1586] cannot be ordered by IC50: at most 100 nM for the first, at most 100 nM for the second.

Compared with Cn1c(Cl)cc(C(=O)Nc2cc(Br)cc3c2[C@H](c2cc(F)ccc2Cl)NC3=O)cc1=O [Compound I-2095], O=C(Nc1cc(Br)cc2c1C(c1cc(F)ccc1Cl)NC2=O)c1cc(F)cc(C(F)F)c1 (stereo not drawn) [Compound I-835] is lower in IC50: 10000 to 100000 nM for the first, 100 to 500 nM for the second.

Compared with C[C@@]1(O)CN(C(=O)Nc2cccc3c2[C@H](c2cc(F)ccc2Cl)NC3=O)c2ccccc21 (single isomer, unassigned) [Compound I-2206], O=C1N[C@H](c2cc(F)ccc2Cl)c2c(NC(=O)N3C[C@](O)(C(F)(F)F)c4ccccc43)cccc21 (single isomer, unassigned) [Compound I-2385] is lower in IC50: 10000 to 100000 nM for the first, 1000 to 10000 nM for the second.

First: C[C@@]1(C(=O)Nc2cc(Br)cc3c2[C@@H](c2cc(F)ccc2Cl)NC3=O)CCC[C@H](C(F)(F)F)C1 (single isomer, unassigned) [Compound I-2264]
Second: O=C1N[C@H](c2cc(F)ccc2Cl)c2c(NC(=O)[C@H]3C[C@H](O)C[C@@H](C(F)(F)F)C3)cc(Br)cc21 (single isomer, unassigned) [Compound I-2150]
The IC50 of the first is lower: 100 to 500 nM for the first, 1000 to 10000 nM for the second.

Compared with O=C1NC(c2cc(F)ccc2Cl)c2c(COc3ccccc3)cc(-c3ccc4ncnn4c3)cc21 (stereo not drawn) [Compound I-2017], O=C1NC(c2cc(F)ccc2Cl)c2c(Nc3nc4ccccc4[nH]3)cc(-c3ccc4ncnn4c3)cc21 (stereo not drawn) [Compound I-1727] is lower in IC50: 10000 to 100000 nM for the first, 1000 to 10000 nM for the second.

O=C(Nc1cc(-c2cnn(-c3ccncn3)c2)cc2c1C(c1cc(F)ccc1Cl)NC2=O)c1cc(F)cc(C(F)(F)F)c1 (stereo not drawn) [Compound I-1465] and N#Cc1cnc2cc(F)c(-c3cc(NC(=O)c4cc(F)cc(C(F)(F)F)c4)c4c(c3)C(=O)NC4c3cc(F)ccc3Cl)cn12 (stereo not drawn) [Compound I-1838] cannot be ordered by IC50: at most 100 nM for the first, at most 100 nM for the second.

First: O=C(Nc1cc(-c2ccc3ncnn3c2)cc2c1[C@@H](c1cc(F)ccc1C(F)F)NC2=O)c1cc(F)cc(C(F)(F)F)c1 (stereo in doubt) [Compound I-1055]
Second: O=C(Nc1cc(-c2ccc3ncnn3c2)cc2c1[C@H](c1cc(F)ccc1Cl)NC2=O)c1cc(F)cc(OC(F)F)c1 (stereo in doubt) [Compound I-1169]
The IC50 of the first is higher: 1000 to 10000 nM for the first, 100 to 500 nM for the second.

O=C(Nc1cc(Br)cc2c1[C@@H](c1cc(Cl)cc(F)c1F)NC2=O)c1cc(F)cc(C(F)(F)F)c1 [Compound I-787] and O=C(Nc1cc(Br)cc2c1C(c1cc(F)ccc1Cl)NC2=O)c1cc(F)cc(COC(F)(F)F)c1 (stereo not drawn) [Compound I-1241] fall in the same range of IC50: 1000 to 10000 nM for the first, 1000 to 10000 nM for the second.

Cc1ccccc1C1NC(=O)c2cccc(NC(=O)C34CCC(C3)c3ccccc34)c21 (stereo not drawn) [Compound I-226, N-(1-Oxo-3-(o-tolyl)isoindolin-4-yl)-1,2,3,4-tetrahydro-1,4-methanonaphthalene-1-carboxamide] and Cc1ccccc1C1NC(=O)c2cccc(NC(=O)c3ncsc3Br)c21 (stereo not drawn) [Compound I-452] fall in the same range of IC50: 1000 to 10000 nM for the first, 1000 to 10000 nM for the second.

First: Cc1ccccc1C1NC(=O)c2cccc(NC(=O)c3nsc4ccc(C#N)cc34)c21 (stereo not drawn) [Compound I-377]
Second: Cc1ccccc1C1NC(=O)c2c(C(=O)NCC(N)=O)ccc(NC(=O)c3nsc4ccccc34)c21 (stereo not drawn) [Compound I-261]
The IC50 of the first is higher: 1000 to 10000 nM for the first, at most 100 nM for the second.

O=C1N[C@H](c2cc(F)ccc2Cl)c2c(NC(=O)N3C[C@](O)(C(F)(F)F)c4cc(F)ccc43)cc(N3CCOC3=O)cc21 (single isomer, unassigned) [Compound I-2674] and O=C1N[C@@H](c2cc(F)ccc2Cl)c2c(NC(=O)N3C[C@@](O)(C(F)(F)F)c4cc(F)ccc43)cc(C(F)F)cc21 (single isomer, unassigned) [Compound I-2578] fall in the same range of IC50: 1000 to 10000 nM for the first, 1000 to 10000 nM for the second.

N#Cc1cccc(S(=O)(=O)Cc2cc(NC(=O)c3cc(F)cc(C(F)(F)F)c3)c3c(c2)C(=O)N[C@@H]3c2cc(F)ccc2Cl)c1 [Compound I-1595] and CC(C#N)c1cc(NC(=O)c2cc(F)cc(C(F)(F)F)c2)c2c(c1)C(=O)N[C@@H]2c1cc(F)ccc1Cl (stereo partly drawn) [Compound I-2289] fall in the same range of IC50: 1000 to 10000 nM for the first, 1000 to 10000 nM for the second.

Compared with O=C1NC(c2cc(F)ccc2Cl)c2c(Nc3cn[nH]c3)cc(Br)cc21 (stereo not drawn) [Compound I-2056], O=C(Nc1cc(Br)cc2c1C(c1cc(F)ccc1Cl)NC2=O)c1cccc(SC(F)(F)F)c1 (stereo not drawn) [Compound I-1314] is lower in IC50: 10000 to 100000 nM for the first, 1000 to 10000 nM for the second.

CC(C)(C)C1CCCN1C(=O)Nc1cccc2c1C(c1cc(F)ccc1Cl)NC2=O (single isomer, unassigned) [Compound I-2433] and CCC(CC(=O)Nc1cccc2c1C(c1cc(F)ccc1Cl)NC2=O)C(C)C(F)(F)F (stereo not drawn) [Compound I-2193] fall in the same range of IC50: 1000 to 10000 nM for the first, 1000 to 10000 nM for the second.

First: O=C(Nc1cc(NC(=O)C2CNC2)cc2c1C(c1cc(F)ccc1Cl)NC2=O)c1cc(F)cc(C(F)(F)F)c1 (stereo not drawn) [Compound I-389]
Second: O=C(Nc1cc(Br)cc2c1C(c1cc(F)ccc1Cl)NC2=O)NC1(CC(F)(F)F)CC1 (stereo not drawn) [Compound I-1755]
The IC50 of the first is lower: 100 to 500 nM for the first, 10000 to 100000 nM for the second. The first is the more potent here.

Compared with N#CCc1ccc(NC(=O)N2C[C@@](O)(C(F)(F)F)c3cc(F)ccc32)c2c1C(=O)N[C@H]2c1cc(F)ccc1Cl (single isomer, unassigned) [Compound I-2616], CC(C)[C@@]1(O)CN(C(=O)Nc2cccc3c2[C@@H](c2cc(F)ccc2Cl)NC3=O)c2ccc(F)cc21 (single isomer, unassigned) [Compound I-2454] is lower in IC50: 1000 to 10000 nM for the first, 100 to 500 nM for the second. The second is the more potent here.

CN1CCC(C(=O)Nc2cc(-c3ccc4ncnn4c3)cc3c2C(c2cc(F)ccc2Cl)NC3=O)CC1 (stereo not drawn) [Compound I-1758] and O=C1NC(c2cc(F)ccc2Cl)c2c1cc(-c1ccc3ncnn3c1)cc2C1=CCCNC1 (stereo not drawn) [Compound I-1998] fall in the same range of IC50: 10000 to 100000 nM for the first, 10000 to 100000 nM for the second.

First: CCOc1ncc(C(=O)Nc2cccc3c2C(c2ccccc2C)NC3=O)cc1F (stereo not drawn) [Compound I-107]
Second: NCc1cc(NC(=O)N2C[C@@](O)(C(F)F)c3cc(F)ccc32)c2c(c1)C(=O)N[C@H]2c1cc(F)ccc1Cl (single isomer, unassigned) [Compound I-2696]
The IC50 of the first is higher: 10000 to 100000 nM for the first, 1000 to 10000 nM for the second. The second is the more potent here.
